Results published in patent US20150038575A1, “MELANOGENESIS-INHIBITORY CONSTITUENTS OF Ligusticum sinense” (priority 2013, published 2015).

Experiments:
[1] = test system: tyrosinase; assay: Assay of tyrosinase activity (L-tyrosine substrate, absorbance at 475 nm); assay type: biochemical; conditions: mushroom tyrosinase, pH 6.8, 37° C.
Protocol: The source of the tested tyrosinase was from mushroom, and the substrate of the tyrosinase was L-tyrosine. The experiment was performed by the method below. First, 40 μL of pH 6.8 phosphate buffer solution, 40 μL of various sample solution (samples in 0.07M pH6.8 phosphate buffer solution containing 0.1 vol % of DMSO), and 40 μL of tyrosinase (250 unit/mL, dissolved in pH 6.8 phosphate buffer solution at a concentration of 0.07 M) were sequentially and respectively added into 96-wells plate. The sample solutions above respectively contain the compounds II, III, and kojic acid. The group added with the sample solution containing kojic acid was used as positive control (PC). A group without adding the sample solution was used as control (C). The mixtures described above were thermostat at 37° C. for 10 minutes. Then, 80 μL of tyrosine solutions (0.4 mg/mL, dissolved in 0.07M pH6.8 phosphate buffer solution) were respectively added into each mixture and thermostat for another 20 minutes to perform reaction. The amount of the obtained product L-DOPA of each mixture was measured at 475 nm to get absorbance of each sample. Therefore, the tyrosinase activity was calculated by the formula below. Tyrosinase activity(%)=[(A−B)/(C−D)]×100 The symbol A above is the absorbance of groups containing a sample and tyrosinase. The symbol B above is the absorbance of groups containing a sample but not tyrosinase. The symbol C above is the absorbance of groups containing tyrosinase but not a sample.

[2] = test system: B16-F10 murine melanoma cells; assay: Viability test of B16-F10 murine melanoma cells (MTT assay); assay type: cell-based; conditions: 72 hours; for cell viability: FIG. 8A
Protocol: In this test, B16-F10 murine melanoma cells (BCRC No. 60031) were used.
First, the B16-F10 murine melanoma cells were cultured in Dulbecco's Modified Eagle's Medium (abbreviated as DMEM, which contains 90% (v/v) DMEM, 10% (v/v) fetal bovine serum), and additionally added 1% (v/v) Penicillin-Streptomycin Solution. Then, the cells in the mediums were incubated under 5% CO2/air at 37° C. in 70% of humidity. The medium was exchanged every two days. When the cells grew to a density of 80-90%, the cells were treated by trypsin to desorb the cells from the walls of containers Next, haemocytometer (Neubauer Improved., Marienfeld, Germany) was used to count the number of the cells. Proper amount of cells were then transplanted into cell culture plates to prepare for cell viability tests.
Cell viability rate was determined by MTT assay. MTT assay was performed by using […] in the mitochondria of living cells to reduce yellow 3-(4,5-dimethylthiazol-2-yl)-2,5-diphenyl tetrazolium bromide (MTT) to purple formazan product. Therefore, the amount of the purple formazan product is proportional to the number of the living cells and thus can be determined by spectrophotomter.
In a 12-wells cell plate, 1×10^3 cells were implanted into each well and stayed for 24 hours to let the cells attach to the wail of the well. Then, the compounds I, II, Ill and arbutin (positive control; PC) were respectively added into each wells and cultured for 72 hours. Next, MTT dye (Applichem Co., Denmark) dissolved in 0.5 mg/ml PBS solution was added to each well to react for 2 hours. The obtained purple formazan product was dissolved in 400 μL of DMSO, and then the absorbance of the purple DMSO solution was analyzed by microplate reader to get the absorbance at 570 nm. The cell viability rate was determined by the formula below.
Cell viability rate (%)=(Absorbance of test group/absorbance of blank group)×100%

[3] = test system: B16-F10 murine melanoma cells; assay: Analysis of melanin content in B16-F10 murine melanoma cells (α-MSH stimulated); assay type: cell-based; conditions: for melanin content in the melanoma cells: B16-F10 cells, 25, 50 and 100 μM, FIG. 8B; for melanin content in the melanoma cells / IC50: 100 nM α-MSH, 72 hours; for IC50: Mus musculus, B16-F10 cells, read-out: IC50 for inhibiting the melanogenesis; for inhibitory activity of melanogenesis: summary statement on the isolated compounds
Protocol: The melanin content in B16-F10 murine melanoma cells was analyzed by a modified Hosoi method disclosed in 1985 (Hosoi J, Abe E, Suda T, Kuroki T, Regulation of melanin synthesis of B16 mouse melanoma cells by 1 alpha, 25-dihydroxyvitamin D3 and retinoic acid. Cancer Res. 1985; 45(4):1474-8).
First, in a 12-wells cell plate, 1×10^3 cells were implanted into each well and stayed for 24 hours to let the cells attach to the wall of the well. Various concentrations (25, 50, and 100 μM) of the compounds I, II, III, and arbutin (positive control; PC) were respectively added into each wells, and 100 nM of α-melanocyte stimulating hormone (α-MSH) was subsequently adaded. The cells were cultured for 72 hours. After the treatment above, cells were washed by PBS, and then treated by trypsin to desorb the cells. 150 μL of 1N NaOH solution containing 10% DMSO was then added and heated in a 80° C. water bath for 1 hour. After cooling to room temperature, the samples were centrifuge at 5000 rpm for 10 minutes. The upper solution was transferred into a 96-wells plate and analyzed by a microplate reader at 405 nm. The absorbance at 405 nm for each sample was read to calculate the melanin content of each sample.

[4] = test system: NHEKs in Leiden epidermal models (LEMs); assay: Viability test of human epidermal skin equivalents (Leiden epidermal models, MTT); assay type: cell-based; conditions: 24 hours exposure
Protocol: In this test, fresh mamma reduction surplus skin of a single individual (D002, Fitzpatrick skin type I/II) was used for isolation of normal human epidermal keratinocytes (NHEKs).
Leiden epidermal models (LEMs) were generated by seeding NHEKs on an inert filter insert. The NHEKs in LEMS were incubated overnight under submerged conditions in keratinocyte medium. Within four days, fetal bovine serum was gradually omitted and the NHEKs in LEMs were cultured serum-free at the air-liquid interface for 7 days, while culture medium was refreshed twice a week.
Viability assays were performed by adding 0,5 mL of 1 mg/mL MTT to each of the NHEKs in LEMs for 3h, after 24 hours exposure to the test articles (compounds II, III, and DMSO (negative control)). The precipitated blue formazan product was extracted from the cells within 2 hours with 0.5 mL isopropanol per well. The concentration of formazan was measured by determining the OD at 570 nm using a Tecan Infinite F50 microplate reader.

[5] = concentration of 10-100 μM, FIG. 8C

Row | Structure (SMILES) | inhibitory effect to the tyrosinase activity [1] | cytotoxicity to the B16-F10 murine melanoma cells [2] | cell viability [2] | melanin content in the melanoma cells [3] | IC50 [3] [µM] | inhibitory activity of melanogenesis [3] | cytotoxicity to the NHEKs in the Leiden epidermal models [4] | cell viability ([4]; 10 μM) [%] | cell viability ([4]; 100 μM) [%] | cell viability [4, 5] | cell growth ([2]; at a concentration of 100 μM) | cell viability ([4]; 50 μM) [%]
1 | CCCC[C@@H]1OC(=O)[C@H]2CCCC[C@@H]12 [compound I, 3-Butylhexahydrophthalide] | do not show obvious inhibitory effect | did not have cytotoxicity | did not affect the cell viability | can decrease the melanin content | 100 ± 12.9 | have inhibitory activity of melanogenesis |  |  |  |  |  | 
2 | CCCC[C@@H]1OC(=O)C2=CCCC[C@H]21 [compound II, Neocnidilide] | do not show obvious inhibitory effect | did not have cytotoxicity | did not affect the cell viability | can decrease the melanin content | 31.1 ± 6.8 | have inhibitory activity of melanogenesis | did not have cytotoxicity | 97 | 92 | did not affect the cell viability |  | 
3 | C=CC(c1ccc(O)c(OC)c1)c1cc(/C=C/C(=O)O)cc(OC)c1O (stereo not drawn) [compound III] | do not show obvious inhibitory effect | did not have cytotoxicity |  | can decrease the melanin content | 78.9 ± 8.1 | have inhibitory activity of melanogenesis | did not have cytotoxicity | 98 | 106 | did not affect the cell viability | slight tendency to inhibit cell growth | 104
